The record followed here is patent US20220117920A1, “N-Aryl Benzenesulfonamides as Protonophores for the Treatment of Cancers, Metabolic Diseases and Traumatic Brain Injury” (University of Kentucky Research Foundation, priority 2019, published 2022).

Experiment [1] has as its system Wnt signaling. The experiment can be described thus: Wnt reporter assay, stable HEK293T cell line containing TOPFlash reporter, LiCl-activated. Type of experiment: cell-based, human. The source says:
(§1) To identify novel Wnt regulators by high throughput screening, a stable HEK293T cell line containing the TOPFlash reporter was established. To identify Wnt inhibitors that targeted molecular events downstream of β-catenin, we treated these cells with lithium chloride to inhibit GSK3 and to stabilize β-catenin. […] We also validated the results by transient transfection of Super 8× TOPFlash or 8× FOPFlash into HEK293T cells. […] Since the results from the stable and transient transfection are compatible, we used stable cell lines for all of the other experiments.
(§2) Reporter assay. Wnt reporter assay and cell staining assay have been described previously. We subcloned Super 8×TOPFlash (provided by Professor Randall Moon, University of Washington) into the pGL4.83 [hRlucP/Puro] Vector and transfected it into HEK293T cells. A stable HEK293T cell line containing the TOPFlash reporter was established using puromycin selection. To screen Wnt inhibitors that block the downstream signaling transduction pathway of β-catenin, we treated the reporter cells with 25 mM LiCl to stabilize β-catenin and activate Wnt signaling. The potential Wnt inhibitors identified from screening were validated by transfecting TOPFlash or FOPFlash plus control renilla reporters into HEK293T cells, and then treating the cells with DMSO or testing compounds in DMSO solution. The Wnt signaling was activated by LiCl or Wnt3A treatment.
(Reporter assays use an easily measured gene product as a stand-in for the process of interest.)

The subject of another experiment is AMPK. Briefly: Western blot of AMPK (T172) and ACC (S79) phosphorylation in CRC cells. To be noted: for AMPK activation: concentration not given; for ACC (S79 phosphorylation) / AMPK activity (T172 phosphorylation): 3 μM. It counts as cell-based, human. How it is done: (§3) Biochemistry. Western blotting: Cells were lysed in the appropriate volume of lysis buffer: 50 mM HEPES, 100 mM NaCl, 2 mM EDTA, 1% (v/v) glycerol, 50 mM NaF, 1 mM Na3VO4, 1% (v/v) Triton X-100, with protease inhibitors. The following antibodies were used: AMPK (Cell Signaling, 2532, Cell Signaling Technologies, Danver, Mass., USA), pAMPK (Cell Signaling, 2535), ACC (Cell Signaling, 3676), pACC (Cell Signaling, 11818), Actin (Sigma, A1978). Antibodies for Axin 2, c-Myc and Cyclin D1 have been described previously. ATP analysis: Cells growing in 12-well plates were treated with DMSO or inhibitors in DMSO solution and lysed by adding 1 mL boiling doubly distilled water. Supernatants were analyzed by luminescence using ATP Determination Kit (Invitrogen, A22066; Thermo Fisher Scientific, Waltham, Mass., USA).
For orientation: Immunoblotting shows a protein as a band on a membrane.

Experiment [2] concerns Wnt signaling. Briefly: Transient transfection of Super 8× TOPFlash or 8× FOPFlash into HEK293T cells. Type of experiment: cell-based, human.
Description: as §1
as §2, with “The Wnt signaling was activated by LiCl or Wnt3A treatment.” left out

Experiment [3] concerns LS174T and DLD-1 CRC cells. The experiment can be described thus: Cell proliferation assay in colon cancer cells. Type of experiment: cell-based, human. As to the method: Cell culture. LS174T colon cancer cells were cultured in EMEM (ATCC, 30-2003) containing 10% (v/v) Fetal Bovine Serum (Sigma F0926, Sigma Aldrich Corp., St. Louis, Mo., USA). The DLD-1, SW480 and SW620 colon cancer cells were cultured in DMEM (Sigma D6429) containing 10% (v/v) Fetal Bovine Serum (Sigma, F0926). For proliferation assays, cells (3.5×10^4 cells per well) were split into 12-well plates. After 24 h, 1 μL of each compound in DMSO solution were added to each well. DMSO was used as a control. Each experiment was done in triplicate. Cell viability and number were analyzed using the Vi-Cell XR Cell Viability Analyzer (Beckman Coulter, Indianapolis, Ind., USA).

The next experiment relates to Wnt target genes. The experiment can be described thus: Western blot of Wnt signaling components and downstream targets in CRC cell lines. It counts as cell-based, human. As to conditions: three CRC cell lines. How it is done: as §3
A further experiment relates to DLD-1 cells. The experiment can be described thus: Seahorse uncoupling assay (OCR) in DLD-1 cells. To be noted: for oxidative phosphorylation: data not shown. It counts as cell-based, human.
Experiment [4] deals with purified mitochondria from mouse liver. Briefly: Uncoupling assay (OCR) using purified mitochondria from mouse livers. It counts as biochemical.
Description: All the steps were carried out at 4° C. or on ice. After mice were euthanized with CO2 followed by rapid decapitation, whole liver was quickly dissected out on a cold block and homogenized using a Teflon-glass dounce homogenizer containing isolation buffer (215 mM mannitol, 75 mM sucrose, 0.1% BSA, 20 mM HEPES, 1 mM EGTA, adjusted to pH 7.2 with KOH). The homogenate was transferred to a 2 mL-microcentrifuge tube and spun at 1,300×g for 3 min. The supernatant was transferred to a fresh 2 mL-microcentrifuge tube and spun at 13,000×g for 10 min. The supernatant was discarded, and the crude mitochondrial pellet was resuspended in a 1.5 mL-microcentrifuge tubes and pelleted again at 10,000×g for 10 min. The supernatant was discarded, and the mitochondrial pellets were resuspended in isolation buffer to obtain an approximate concentration ≥10 mg/mL of mitochondria. The absolute protein concentration was determined using a bicinchoninic acid (BCA) protein assay kit (Pierce, Cat #23,227) by recording absorbance at 560 nm on a Biotek Synergy HT plate reader (Winooski, Vt., USA).
Mitochondrial Bioenergetics Measurements. Mitochondrial bioenergetic measurements were carried out using a Seahorse XFe96 Extracellular Flux Analyzer (Agilent Technologies, Santa Clara, Calif., USA) to measure oxygen consumption rate (OCR) during various states of respiration. The OCR were measured in the presence of different substrates, inhibitors and uncouplers of the electron transport chain using previous methods with slight modifications. The stocks used for the assays were 500 mM pyruvate, 250 mM malate, and 30 mM adenosine diphosphate (ADP), and 1 M succinate (pH for all was adjusted to 7.2). […] Stock solutions of FH535, Y3, FH535-M, and Y3-M were prepared at 5 mM in 100% DMSO. As per the instructions from XFe96 Extracellular Flux kit, the sensor cartridge was hydrated with water and kept at 37° C. overnight before the experiment. One hour before the assay was conducted, water was removed from assay plates and XF calibrant was added before re-incubation. The injection ports A to D of the sensor cartridge were loaded with 25 μL of different combinations of the above substrates/inhibitors/uncouplers as follows. Before loading, the stocks were diluted appropriately in the respiration buffer (RB) (125 mM KCl, 0.1% BSA, 20 mM HEPES, 2 mM MgCl2, and 2.5 mM KH2PO4; pH 7.2) to get the final concentrations in the respiration chamber of 5 μM pyruvate, 2.5 μM malate, 10 μM of succinate and 1 μM ADP (via Port A), 1 μM oligomycin A (via Port B), 4 μM FCCP or 5 μM/1 μM FH535 or 5 μM/1 μM Y3 or 5 μM/1 μM FH535-M or 5 μM/1 μM Y3-M (via Port C) and 0.1 μM antimycin A (via Port D) starting with the initial volume of 175 μL RB in the chamber and diluting it to 9×, 10×, 11× and 12× with every injection through ports A to D, respectively. Once loaded, the sensor cartridge was placed into the Seahorse XFe96 Flux Analyzer for automated calibration. Seahorse Standard XFe96 assay plates were used for loading mitochondria. Initially total mitochondria were diluted to 6 μg/30 μL in RB and 30 μL was loaded in each well resulting in 6 μg mitochondria/well. The assay plates were centrifuged at 3,000 rpm for 4 min at 4° C. to adhere liver mitochondria at the bottom of the wells. After centrifugation, 145 μL RB (pre-incubated to 37° C.) was added without disturbing the mitochondrial layer to obtain a final volume of 175 μL per well. […]
In experiment [5] the test system is mitochondrial ATP production. Briefly: Agilent Seahorse XF Real-Time ATP Rate Assay. It counts as cell-based, human.
Description: (§4) Seahorse assay. Approximately 3×10^4 cells were seeded in XF96 Cell Culture microplate (80 μL of 3.75×10^5 cells/mL) for all experiments. On the next day, cell culture media were replaced with either Seahorse XF modified media with 25 mM glucose and 1 mM pyruvate. After media exchange, cells were treated with 1 μM of oligomycin A, 1.0 μM FCCP and mixture of 1.0 μM of rotenone and 1.0 μM of antimycin A in standard mitochondrial stress test conditions. To determine the uncoupler effects, FCCP was replaced with an equal volume of DMSO, or a compound to be tested in DMSO solution. ATP production rate was analyzed using Agilent Seahorse XF Real-Time ATP Rate Assay.
A further experiment deals with LS174T cells. The experiment can be described thus: ATP analysis (luminescence) in LS174T cells. It counts as cell-based, human. As to conditions: 10 mM. How it is done:
as §3

In experiment [6] the test system is mitochondrial membrane potential. Briefly: Mitochondria membrane potential assay (TMRM staining). Type of experiment: cell-based, human. To be noted: FTU-11 at 3 μM. How it is done:
Mitochondria Membrane potential assay: DLD-1 and LS174T cells were plated onto 24-well plates and maintained in DMEM (DLD-1) and RPMI1640 (LS174T) with 10% (v/v) (DLD-1) and 5% (v/v) (LS174T) serum for one day. The cells were treated with DMSO or a testing compound in DMSO solution for 2 h, followed by staining with 100 nM tetramethylrhodamine methyl ester perchlorate (TMRM) (Cayman Chemical Company, MI, USA) for 15 min. Cells were rinsed once with PBS and then observed under fluorescence microscopy at 568 nm.

Description for DLD-1 cells: as §4

As for `O=C1[C@H](Cc2ccc(O)cc2)N2C(=O)CCN(C(=O)NCc3ccccc3)[C@H]2CN1Cc1cccc2ccccc12` [ICG-001, (6S,9aS)—N-benzyl-6-(4-hydroxybenzyl)-8-(naphthalen-1-ylmethyl)-4,7-dioxohexahydro-2H-pyrazino[1,2-c]pyrimidine-1(6H)-carboxamide, reference compound], the “inhibition of Wnt signaling” value with Wnt signaling [1] (concentration not given) is on record as “only inhibited Wnt signaling”. The AMPK activation result in the experiment with AMPK is on record as “no effect on AMPK”.
In the case of `O=C(Nc1ccc(C(F)(F)F)cc1)Nc1cc(F)c(F)c(F)c1` [FDN-4E, 1-(4-(trifluoromethyl)phenyl)-3-(3,4,5-trifluorophenyl)urea], the “inhibition of Wnt signaling” value with Wnt signaling [1] (concentration not given) is “inhibited Wnt signaling”. Also, in the experiment on Wnt signaling [2], the “TOPFlash and FOPFlash activity” value is on record as “inhibited TOPFlash but not FOPFlash activity”. The “proliferation of colon cancer cells” value in experiment [3] is listed as “inhibited the proliferation of colon cancer cells at sub-micromolar concentrations”. Moreover, in the experiment with Wnt target genes, the Wnt target genes entry was “inhibited Wnt target genes”. In the experiment on AMPK, the “ACC (S79 phosphorylation)” value is recorded as “inhibited ACC” and the “AMPK activity (T172 phosphorylation)” value is “increased AMPK activity”.
`CN(c1ccc([N+](=O)[O-])c2ccccc12)S(=O)(=O)c1cc(Cl)ccc1Cl` [Y3-M, 2,5-dichloro-N-methyl-N-(4-nitronaphthalen-1-yl)benzenesulfonamide]: the “inhibition of Wnt signaling” value in the experiment with Wnt signaling [1] (3 μM) is “lost activities”. The “AMPK activity (T172 phosphorylation)” value with AMPK is recorded as “lost activities”. The “uncoupling: OCR inhibited by oligomycin” value with DLD-1 cells (testing compound 3 μM) is on record as “failed as a mitochondrial uncoupler”. The “uncoupling: OCR blocked by oligomycin” value in experiment [4] (5 μM/1 μM) is “inactive”.
For the compound `CC[C@H]1/C=C/C=C/C[C@@H](C)[C@H](O)[C@@](C)(O)C(=O)[C@@H](C)[C@H](O)[C@@H](C)C(=O)[C@@H](C)[C@H](O)[C@@H](C)/C=C/C(=O)O[C@@H]2[C@H](C)[C@H](CC1)O[C@]1(CC[C@H](C)[C@H](C[C@@H](C)O)O1)[C@H]2C` [oligomycin, reference compound], in the experiment with Wnt signaling [1] (concentration not given), the “inhibition of Wnt signaling” value is “inhibited Wnt signaling”. The AMPK activation result in the experiment on AMPK was “activated AMPK”. The oxidative phosphorylation result with DLD-1 cells is “inhibited oxidative phosphorylation”.
`N#CC(C#N)=NNc1ccc(OC(F)(F)F)cc1` [FCCP, N-(4-(trifluoromethoxy)phenyl)carbonohydrazonoyl dicyanide, reference compound]: the “inhibition of Wnt signaling” value in the experiment with Wnt signaling [1] (concentration not given) is “inhibited Wnt signaling”. Moreover, the AMPK activation entry with AMPK is “strongly activated AMPK”. Besides, in experiment [5] (1 μM, control), the “rate of ATP production in mitochondria” value was “decreased the rates of ATP production in mitochondria”. Besides, the “uncoupling: OCR inhibited by oligomycin” value with DLD-1 cells (1 μM, control) was “increased OCR inhibited by oligomycin”. The “uncoupling: OCR blocked by oligomycin” value in [4] (control, 1 μM) is given as “rescued”.
On to antimycin [reference compound], for which the “inhibition of Wnt signaling” value in the experiment on Wnt signaling [1] (concentration not given) is listed as “inhibited Wnt signaling”. Besides, the AMPK activation entry in the experiment with AMPK is “activated AMPK”. Besides, the oxidative phosphorylation entry in the experiment with DLD-1 cells was “inhibited oxidative phosphorylation”.
With `O=CC[C@@H](O)[C@H](O)[C@H](O)CO` [2-DG, 2-deoxy-D-glucose], in the experiment on Wnt signaling [1] (concentration not given), the “inhibition of Wnt signaling” value is given as “inhibited Wnt signaling”. In addition, the AMPK activation entry with AMPK is recorded as “activated AMPK”. For the same compound, the ATP levels result in the experiment on LS174T cells is “reduced ATP levels”.
Take `N#Cc1c(O)c2c(-c3ccc(-c4ccccc4O)cc3)csc2[nH]c1=O` [A769662, 4-hydroxy-3-(2′-hydroxy-[1,1′-biphenyl]-4-yl)-6-oxo-6,7-dihydrothieno[2,3-b]pyridine-5-carbonitrile, reference compound]: the “inhibition of Wnt signaling” value with Wnt signaling [1] (10 μM) is on record as “did not inhibit Wnt signaling”. Besides, in the experiment on AMPK (without affecting AMPK phosphorylation), the “AMPK activity (ACC S79 phosphorylation)” value is recorded as “Increased AMPK activity”.
Consider `c1cc(-c2cnn3cc(-c4ccc(OCCN5CCOCC5)cc4)cnc23)ccn1` [Compound C, 4-(2-(4-(3-(pyridin-4-yl)pyrazolo[1,5-a]pyrimidin-6-yl)phenoxy)ethyl)morpholine, reference compound], for which the “rescue of Wnt signaling inhibited by FTU-11 (3 μM) and FDN-4E (3 μM)” value with Wnt signaling [1] (5 μM) is on record as “no effect”. In the experiment on AMPK (5 μM), the “urea-induced AMPK phosphorylation and ACC phosphorylation” value was “decreased”.
On to `O=C(Nc1nnc(C(F)(F)F)s1)NC(CC(F)(F)F)(C(F)(F)F)C(F)(F)F` [FTU-11, 1-(1,1,1,4,4,4-hexafluoro-2-(trifluoromethyl)butan-2-yl)-3-(5-(trifluoromethyl)-1,3,4-thiadiazol-2-yl)urea], for which the “concentration at which Wnt signaling was inhibited” value with Wnt signaling [1] (96-well assay using stable cell line) stood at 0.5 mM. The “TOPFlash and FOPFlash activity” value in the experiment on Wnt signaling [2] is reported as “inhibited TOPFlash but not FOPFlash activity”. Moreover, in [3], the “proliferation of colon cancer cells” value was “inhibited the proliferation of colon cancer cells at sub-micromolar concentrations”. In addition, in the experiment with Wnt target genes, the Wnt target genes entry is recorded as “inhibited Wnt target genes”. Further, in the experiment with AMPK, the “ACC (S79 phosphorylation)” value was “inhibited ACC”, the “AMPK activity (T172 phosphorylation)” value is given as “increased AMPK activity” and the AMPK activation result is “equal in potency to FDN-4E”. For the same compound, the “rate of ATP production in mitochondria” value in experiment [5] (3 μM) is on record as “decreased the rates of ATP production in mitochondria”. Also, the mitochondrial membrane potential result in experiment [6] is “reduced mitochondrial membrane potential”. For the same compound, the mitochondrial membrane potential entry in experiment [6] (listed as FTC-11) is recorded as “significantly reduced the membrane potential of mitochondria”. The “uncoupling: OCR inhibited by oligomycin” value in the experiment with DLD-1 cells (testing compound 3 μM) is on record as “increased OCR inhibited by oligomycin”.
Regarding `Cc1cc([N+](=O)[O-])ccc1N(C)S(=O)(=O)c1cc(Cl)ccc1Cl` [FH535-M, 2,5-dichloro-N-methyl-N-(2-methyl-4-nitrophenyl)benzenesulfonamide], the “inhibition of Wnt signaling” value in the experiment with Wnt signaling [1] (3 μM) is listed as “lost activities”. Also, in the experiment with AMPK, the “AMPK activity (T172 phosphorylation)” value is given as “lost activities”. For the same compound, the “uncoupling: OCR inhibited by oligomycin” value with DLD-1 cells (testing compound 3 μM) is listed as “no longer functioned as a mitochondrial uncoupler”. For the same compound, the “uncoupling: OCR blocked by oligomycin” value in [4] (5 μM/1 μM) was “inactive”.
As for `C=C(C)[C@H]1Cc2c(ccc3c2O[C@@H]2COc4cc(OC)c(OC)cc4[C@@H]2C3=O)O1` [rotenone, reference compound], in the experiment with Wnt signaling [1] (concentration not given), the “inhibition of Wnt signaling” value was “inhibited Wnt signaling”. Also, the AMPK activation result in the experiment with AMPK was “activated AMPK”. In the experiment on DLD-1 cells, the oxidative phosphorylation result is “inhibited oxidative phosphorylation”.
